Where “and” joins values, the source holds several entries; their conditions need not be identical. Identical values can stand only once. Inconclusive results and toxic doses are left out.

The assay has as its system L1210 leukemia ip in BDF1 mice, survival T/C. The experiment in a line: NCI In Vivo Anticancer Drug Screen. Data for tumor model L1210 Leukemia (intraperitoneal) in B6D2F1 (BDF1) mice. Particulars: higher = longer survival. The procedure, abridged: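 Each compound was tested against a transplantable tumor grown in mice. The endpoint was survival, with treated animals benchmarked against vehicle controls as a simple ratio.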

Where [1] appears, read: endpoint: mean survival time, dose: 50.0 mg/kg/injection, schedule: Q01DX001 (ip), vehicle: carboxymethylcellulose (CMC).
The mark [2] stands for this setting: endpoint: mean survival time, dose: 100.0 mg/kg/injection, schedule: Q01DX001 (ip), vehicle: carboxymethylcellulose (CMC).
Setting [3] is: endpoint: mean survival time, dose: 200.0 mg/kg/injection, schedule: Q01DX001 (ip), vehicle: carboxymethylcellulose (CMC).
Where [4] appears, read: endpoint: mean survival time, dose: 100.0 mg/kg/injection, schedule: Q01DX001 (ip), vehicle: saline.
[5] abbreviates: endpoint: mean survival time, dose: 200.0 mg/kg/injection, schedule: Q01DX001 (ip), vehicle: saline.
Where [6] appears, read: endpoint: mean survival time, dose: 400.0 mg/kg/injection, schedule: Q01DX001 (ip), vehicle: saline.
Where [7] appears, read: endpoint: mean survival time, dose: 100.0 mg/kg/injection, schedule: Q04DX003 (ip), vehicle: Klucel (hydroxypropylcellulose) (HPC).
The mark [8] stands for this setting: endpoint: mean survival time, dose: 200.0 mg/kg/injection, schedule: Q04DX003 (ip), vehicle: Klucel (hydroxypropylcellulose) (HPC).
Where [9] appears, read: endpoint: mean survival time, dose: 100.0 mg/kg/injection, schedule: Q01DX009 (ip), vehicle: Klucel (hydroxypropylcellulose) (HPC).
Setting [10] is: endpoint: mean survival time, dose: 200.0 mg/kg/injection, schedule: Q01DX009 (ip), vehicle: Klucel (hydroxypropylcellulose) (HPC).
Where [11] appears, read: endpoint: mean survival time, dose: 400.0 mg/kg/injection, schedule: Q01DX009 (ip), vehicle: Klucel (hydroxypropylcellulose) (HPC).
Where [12] appears, read: endpoint: mean survival time, dose: 100.0 mg/kg/injection, schedule: Q04DX002 (ip), vehicle: Klucel (hydroxypropylcellulose) (HPC).
[13] abbreviates: endpoint: mean survival time, dose: 200.0 mg/kg/injection, schedule: Q04DX002 (ip), vehicle: Klucel (hydroxypropylcellulose) (HPC).
[14] abbreviates: endpoint: mean survival time, dose: 400.0 mg/kg/injection, schedule: Q04DX002 (ip), vehicle: Klucel (hydroxypropylcellulose) (HPC).
[15] abbreviates: endpoint: mean survival time, dose: 100.0 mg/kg/injection, schedule: Q01DX005 (ip), vehicle: saline.
The mark [16] stands for this setting: endpoint: mean survival time, dose: 200.0 mg/kg/injection, schedule: Q01DX005 (ip), vehicle: saline.
Where [17] appears, read: endpoint: mean survival time, dose: 100.0 mg/kg/injection, schedule: Q04DX003 (ip), vehicle: saline with Tween-80.
Where [18] appears, read: endpoint: mean survival time, dose: 200.0 mg/kg/injection, schedule: Q04DX003 (ip), vehicle: saline with Tween-80.
The mark [19] stands for this setting: endpoint: mean survival time, dose: 400.0 mg/kg/injection, schedule: Q04DX003 (ip), vehicle: saline with Tween-80.

`O=[N+]([O-])c1c(Cl)nc2sccn12`: the T/C (endpoint: mean survival time, dose: 100.0 mg/kg/injection, schedule: Q04DX002 (ip), vehicle: saline) is 106 % of control; the T/C (endpoint: mean survival time, dose: 200.0 mg/kg/injection, schedule: Q04DX002 (ip), vehicle: saline) is 109 % of control; the T/C (endpoint: mean survival time, dose: 400.0 mg/kg/injection, schedule: Q04DX002 (ip), vehicle: saline) is 90 % of control.
As for `CC(=O)/C(C)=C/C=O`, the T/C (endpoint: mean survival time, dose: 0.78 mg/kg/injection, schedule: Q01DX009 (ip), vehicle: water) is 100 % of control; the T/C (endpoint: mean survival time, dose: 1.56 mg/kg/injection, schedule: Q01DX009 (ip), vehicle: water) was 102 % of control; the T/C (endpoint: mean survival time, dose: 3.12 mg/kg/injection, schedule: Q01DX009 (ip), vehicle: water) was 94 % of control; the T/C (endpoint: mean survival time, dose: 3.12 mg/kg/injection, schedule: Q04DX003 (ip), vehicle: water) is 95 % of control; the T/C (endpoint: mean survival time, dose: 6.25 mg/kg/injection, schedule: Q01DX009 (ip), vehicle: water) is 102 % of control; the T/C (endpoint: mean survival time, dose: 6.25 mg/kg/injection, schedule: Q04DX003 (ip), vehicle: water) is 101 % of control. The T/C (endpoint: mean survival time, dose: 12.5 mg/kg/injection, schedule: Q01DX009 (ip), vehicle: water) is 107 % of control; the T/C (endpoint: mean survival time, dose: 12.5 mg/kg/injection, schedule: Q04DX003 (ip), vehicle: water) is 100 % of control and 101 % of control.
In the case of `OCC(O)C(O)/C=N/Nc1cc(Cl)ccc1Cl` (stereo not given), the T/C reads like this: under setting [1], 90 % of control; under setting [2], 104 % of control; under setting [3], 95 % of control.
Consider `Cc1ccc(N=NN(C)N=Nc2ccc(C)cc2)cc1`, for which the T/C by setting is: (endpoint: mean survival time, dose: 50.0 mg/kg/injection, schedule: Q01DX001 (ip), vehicle: saline) 98 % of control; under setting [4], 95 % of control; under setting [5], 95 % of control; under setting [6], 93 % of control.
For the molecule `O=C(SCCN1CCCC1)N1c2ccccc2Sc2ccc(Cl)cc21`, the T/C reads like this: (endpoint: mean survival time, dose: 75.0 mg/kg/injection, schedule: Q01DX001 (ip), vehicle: carboxymethylcellulose (CMC)) 94 % of control; (endpoint: mean survival time, dose: 150.0 mg/kg/injection, schedule: Q01DX001 (ip), vehicle: carboxymethylcellulose (CMC)) 94 % of control.
Regarding `CC(C)(CO)C(O)C(=O)NCCCCC1CCCCC1` (stereo not given), the T/C is 98 % of control under setting [7]; 93 % of control under setting [8]; 88 % of control (endpoint: mean survival time, dose: 400.0 mg/kg/injection, schedule: Q04DX003 (ip), vehicle: Klucel (hydroxypropylcellulose) (HPC)).
As to `O=C1c2ccccc2-c2ncccc21`, the T/C under setting [9] is 103 % of control; the T/C under setting [7] was 98 % of control; the T/C under setting [10] was 102 % of control; the T/C under setting [8] was 109 % of control; the T/C under setting [11] is 92 % of control.
For the molecule `C=CCOC(=O)C1(O)c2ccccc2NC(=S)N1CC=C` (stereo not given), the T/C is 104 % of control under setting [9]; 97 % of control under setting [12]; 93 % of control under setting [10]; 97 % of control under setting [13]; 93 % of control under setting [11]; 100 % of control under setting [14].
Take `Cc1cc([N+](=O)[O-])ccc1NC(=O)C(Br)C(Br)C(=O)O` (stereo not given): the T/C (endpoint: mean survival time, dose: 25.0 mg/kg/injection, schedule: Q01DX009 (ip), vehicle: other) is 101 % of control; the T/C (endpoint: mean survival time, dose: 50.0 mg/kg/injection, schedule: Q01DX009 (ip), vehicle: other) is 102 % of control; the T/C (endpoint: mean survival time, dose: 100.0 mg/kg/injection, schedule: Q01DX009 (ip), vehicle: other) was 93 % of control and 94 % of control.
Regarding `Nc1c(C(=O)O)ccc2c1C(=O)c1ccccc1C2=O`, the T/C (endpoint: mean survival time, dose: 25.0 mg/kg/injection, schedule: Q04DX003 (ip), vehicle: gum acacia) is 103 % of control; the T/C (endpoint: mean survival time, dose: 50.0 mg/kg/injection, schedule: Q04DX003 (ip), vehicle: gum acacia) is 100 % of control; the T/C (endpoint: mean survival time, dose: 100.0 mg/kg/injection, schedule: Q04DX003 (ip), vehicle: gum acacia) is 103 % of control and 108 % of control; the T/C (endpoint: mean survival time, dose: 200.0 mg/kg/injection, schedule: Q04DX003 (ip), vehicle: gum acacia) is 97 % of control.
Take `O=c1n[n+]([O-])ccn1C1OC(CO)C(O)C1O` (stereo not given): the T/C reads like this: under setting [15], 111 % of control; under setting [16], 111 % of control; (endpoint: mean survival time, dose: 200.0 mg/kg/injection, schedule: Q01DX009 (ip), vehicle: saline) 121 % of control; (endpoint: median survival time, dose: 200.0 mg/kg/injection, schedule: Q01DX009 (ip), vehicle: saline) 176 % of control; (endpoint: median survival time, dose: 250.0 mg/kg/injection, schedule: Q01DX009 (ip), vehicle: saline) 280 % of control; (endpoint: median survival time, dose: 300.0 mg/kg/injection, schedule: Q01DX009 (ip), vehicle: saline) 352 % of control. Also, the T/C runs as follows: (endpoint: median survival time, dose: 350.0 mg/kg/injection, schedule: Q01DX009 (ip), vehicle: saline) 97 % of control; (endpoint: median survival time, dose: 400.0 mg/kg/injection, schedule: Q01DX009 (ip), vehicle: saline) 97 % of control; (endpoint: median survival time, dose: 450.0 mg/kg/injection, schedule: Q01DX009 (ip), vehicle: saline) 152 % of control.
With `O=Cc1cn(C2CC(O)C(CO)O2)c(=O)[nH]c1=O` (stereo not given), the T/C is, setting by setting: (endpoint: mean survival time, dose: 50.0 mg/kg/injection, schedule: Q01DX009 (ip), vehicle: Klucel (hydroxypropylcellulose) (HPC)) 117 % of control; (endpoint: mean survival time, dose: 50.0 mg/kg/injection, schedule: Q04DX003 (ip), vehicle: saline with Tween-80) 103 % of control; under setting [15], 108 % of control; under setting [17], 99 % of control; under setting [16], 110 % of control; under setting [18], 102 % of control. The T/C runs as follows: under setting [11], 114 % of control; under setting [19], 96 % of control.
Consider `Cc1cc(/C=C/c2ccc(N(CCCl)CCCl)cc2)nc2ccccc12`, for which the T/C by setting is: under setting [4], 107 % of control; under setting [5], 113 % of control; under setting [6], 103 % of control.
As for `CCCCCCC(=O)/C=C/c1ccc(Cl)cc1`, the T/C is 93 % of control (endpoint: mean survival time, dose: 100.0 mg/kg/injection, schedule: Q01DX009 (ip), vehicle: acetone); 96 % of control under setting [17]; 90 % of control (endpoint: mean survival time, dose: 200.0 mg/kg/injection, schedule: Q01DX009 (ip), vehicle: acetone); 98 % of control under setting [18]; 92 % of control (endpoint: mean survival time, dose: 400.0 mg/kg/injection, schedule: Q01DX009 (ip), vehicle: acetone); 93 % of control under setting [19].
On to `COc1ccc(C)cc1NC(=O)Nc1ccccc1C(F)(F)F`, for which the T/C reads like this: under setting [9], 89 % of control; under setting [10], 91 % of control; under setting [11], 100 % of control.
As for `O=c1[nH]cnc2c1ncn2-c1ccc(N(CCO)CCO)cc1`, the T/C reads like this: under setting [1], 98 % of control; under setting [2], 115 % of control; under setting [3], 95 % of control; (endpoint: mean survival time, dose: 400.0 mg/kg/injection, schedule: Q01DX001 (ip), vehicle: carboxymethylcellulose (CMC)) 98 % of control.
Consider `Cc1ccc2c(Cl)ccc(Cl)c2n1`, for which the T/C under setting [12] was 90 % of control; the T/C (endpoint: mean survival time, dose: 100.0 mg/kg/injection, schedule: Q04DX002 (ip), vehicle: carboxymethylcellulose (CMC)) was 98 % of control and 90 % of control; the T/C (endpoint: mean survival time, dose: 100.0 mg/kg/injection, schedule: Q04DX003 (ip), vehicle: carboxymethylcellulose (CMC)) is 95 % of control; the T/C under setting [13] was 90 % of control; the T/C (endpoint: mean survival time, dose: 200.0 mg/kg/injection, schedule: Q04DX002 (ip), vehicle: carboxymethylcellulose (CMC)) was 94 % of control and 91 % of control; the T/C (endpoint: mean survival time, dose: 200.0 mg/kg/injection, schedule: Q04DX003 (ip), vehicle: carboxymethylcellulose (CMC)) is 104 % of control. Also, the T/C is 105 % of control under setting [14] and 92 % of control (endpoint: mean survival time, dose: 400.0 mg/kg/injection, schedule: Q04DX002 (ip), vehicle: carboxymethylcellulose (CMC)).
For the molecule `C=C(C)C(=O)OCC1CO1` (stereo not given), the T/C (endpoint: mean survival time, dose: 50.0 mg/kg/injection, schedule: Q01DX Z (ip), vehicle: other) is 90 % of control; the T/C (endpoint: mean survival time, dose: 100.0 mg/kg/injection, schedule: Q01DX Z (ip), vehicle: other) is 95 % of control; the T/C (endpoint: mean survival time, dose: 200.0 mg/kg/injection, schedule: Q01DX Z (ip), vehicle: other) was 107 % of control.

These data come from PubChem BioAssay AID248 (DTP/NCI, 2004).
